Source: EP3789378A1, “PIPERIDINES OR PIPERIDONES SUBSTITUTED WITH UREA AND HETEROARYL” (Grünenthal GmbH, priority 2019, dated 2021)

biological target: T1, h FPR2 (Homo sapiens, UniProt P25090); experiment: Agonistic activity in hFPR2-Aq-CHO cells (FLIPR Calcium 5 fluorescence assay); assay type: cell-based; settings: 11 point half log dilution, final assay concentration from 10µM
T1 construct: expressed in transfected cells
T1 sequence (P25090 1-351): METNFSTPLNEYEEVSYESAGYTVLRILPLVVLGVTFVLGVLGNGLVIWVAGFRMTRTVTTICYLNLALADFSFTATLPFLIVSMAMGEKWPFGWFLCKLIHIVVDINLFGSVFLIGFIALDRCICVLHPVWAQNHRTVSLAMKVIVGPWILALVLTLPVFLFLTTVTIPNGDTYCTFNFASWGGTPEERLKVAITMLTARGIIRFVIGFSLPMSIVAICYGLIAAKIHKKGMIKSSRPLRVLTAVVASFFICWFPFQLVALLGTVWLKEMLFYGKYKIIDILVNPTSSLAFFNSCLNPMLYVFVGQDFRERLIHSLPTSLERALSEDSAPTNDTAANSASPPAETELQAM
In short: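 EC50 reflects the compound-evoked rise in Calcium 5 fluorescence over basal, recorded for 5 min on FLIPR and compared with no-compound wells. Dye-loaded hFPR2-Aq-CHO cells received half-log dilutions from 10 µM to 100 pM final in pH 7.4 HBSS buffer.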

Point of comparison: COc1ccc([C@@H]2CN(CCCO)CC[C@H]2NC(=O)Nc2ccc(Cl)cc2)nc1 (relative stereo) [Ex-103, trans-1-(4-chloro-phenyl)-3-[1'-(3-hydroxy-propyl)-5-methoxy-1',2',3',4',5',6'-hexahydro-[2,3']bipyridinyl-4'-yl]-urea], EC50 2 nM. Against it:
- COc1ccc([C@@H]2CN(CCS(C)(=O)=O)CC[C@H]2NC(=O)Nc2ccc(Cl)cc2)nc1 (relative stereo) [Ex-93, trans-1-(4-chloro-phenyl)-3-[1'-(2-methanesulfonyl-ethyl)-5-methoxy-1',2',3',4',5',6'-hexahydro-[2,3']bipyridinyl-4'-yl]-urea] — 1.5-fold higher, 3 nM
- COc1ccc([C@@H]2CN(C(=O)CCN(C)C)CC[C@H]2NC(=O)Nc2ccc(Cl)cc2)nc1 (relative stereo) [Ex-95, trans-1-(4-chloro-phenyl)-3-[1'-(3-dimethylamino-propionyl)-5-methoxy-1',2',3',4',5',6'-hexahydro-[2,3']bipyridinyl-4'-yl]-urea] — 6-fold higher, 12 nM
- CNCC(=O)N1CC[C@@H](NC(=O)Nc2ccc(Cl)cc2)[C@H](c2ccc(OC)cn2)C1 (relative stereo) [Ex-96, trans-1-(4-chloro-phenyl)-3-[5-methoxy-1'-(2-methylamino-acetyl)-1',2',3',4',5',6'-hexahydro-[2,3']bipyridinyl-4'-yl]-urea] — 2-fold higher, 4 nM
- CNCCC(=O)N1CC[C@@H](NC(=O)Nc2ccc(Cl)cc2)[C@H](c2ccc(OC)cn2)C1 (relative stereo) [Ex-97, trans-1-(4-chloro-phenyl)-3-[5-methoxy-1'-(3-methylamino-propionyl)-1',2',3',4',5',6'-hexahydro-[2,3']bipyridinyl-4'-yl]-urea] — 2-fold higher, 4 nM
- COc1ccc([C@@H]2CN(C(=O)CCO)CC[C@H]2NC(=O)Nc2ccc(Cl)cc2)nc1 (relative stereo) [Ex-102, trans-1-(4-chloro-phenyl)-3-[1'-(3-hydroxy-propionyl)-5-methoxy-1',2',3',4',5',6'-hexahydro-[2,3']bipyridinyl-4'-yl]-urea] — 14-fold higher, 27 nM
- CN1CCC(C(=O)N2CC[C@@H](NC(=O)Nc3ccc(Cl)cc3)[C@H](c3ccc(Cl)s3)C2)CC1 (relative stereo) [Ex-104, trans-1-(4-chloro-phenyl)-3-[3-(5-chloro-thiophen-2-yl)-1-(1-methyl-piperidine-4-carbonyl)-piperidin-4-yl]-urea] — 3-fold higher, 6 nM
- O=C(Nc1ccc(Cl)cc1)N[C@@H]1CCN(CCCO)C[C@H]1c1ccc(Cl)s1 (relative stereo) [Ex-105, trans-1-(4-chloro-phenyl)-3-[3-(5-chloro-thiophen-2-yl)-1-(3-hydroxy-propyl)-piperidin-4-yl]-urea] — 5.5-fold higher, 11 nM
- COC1CCC(C(=O)N2CC[C@@H](NC(=O)Nc3ccc(Cl)cc3)[C@H](c3ccc(Cl)s3)C2)CC1 (relative stereo) [Ex-107, trans-1-(4-chloro-phenyl)-3-[3-(5-chloro-thiophen-2-yl)-1-(4-methoxy-cyclohexanecarbonyl)-piperidin-4-yl]-urea] — 23-fold higher, 46 nM
- COc1ccc([C@@H]2CN(C3COC3)CC[C@H]2NC(=O)Nc2ccc(Cl)cc2)nc1 (relative stereo) [Ex-108, trans-1-(4-chloro-phenyl)-3-(5-methoxy-1'-oxetan-3-yl-1',2',3',4',5',6'-hexahydro-[2,3']bipyridinyl-4'-yl)-urea] — 3.5-fold higher, 7 nM

same assay, conditions: agonistic response at 0.1µM

Point of comparison: COc1ccc([C@@H]2CN(C(=O)c3cnccc3C(F)(F)F)CC[C@H]2NC(=O)Nc2ccc(Cl)cc2)nc1 (relative stereo) [Ex-98, trans-1-(4-chlorophenyl)-3-[3-(5-methoxypyridin-2-yl)-1-{[4-(trifluoromethyl)pyridin-3-yl]carbonyl}piperidin-4-yl]urea], activation at 0.1 µM 26%. Against it:
- COCCC(=O)N1CC[C@@H](NC(=O)Nc2ccc(Cl)cc2)[C@H](c2ccc(Cl)s2)C1 (relative stereo) [Ex-106, trans-1-(4-chloro-phenyl)-3-[3-(5-chloro-thiophen-2-yl)-1-(3-methoxy-propionyl)-piperidin-4-yl]-urea] — higher, 41%
